The compounds below were run against T1, human MRGPRX2 (Homo sapiens, UniProt Q96LB1) (assay: MRGPRX2 Activity: IP-One HTRF antagonist assay in CHO cells stably expressing human MRGPRX2, versus Cortistatin-14). Settings: versus 0.3 uM Cortistatin-14 agonist, IP-1 HTRF, read-out: MRGPR2 Antagonist Activity.
T1 construct: expressed in transfected cells
T1 sequence (Q96LB1 1-330): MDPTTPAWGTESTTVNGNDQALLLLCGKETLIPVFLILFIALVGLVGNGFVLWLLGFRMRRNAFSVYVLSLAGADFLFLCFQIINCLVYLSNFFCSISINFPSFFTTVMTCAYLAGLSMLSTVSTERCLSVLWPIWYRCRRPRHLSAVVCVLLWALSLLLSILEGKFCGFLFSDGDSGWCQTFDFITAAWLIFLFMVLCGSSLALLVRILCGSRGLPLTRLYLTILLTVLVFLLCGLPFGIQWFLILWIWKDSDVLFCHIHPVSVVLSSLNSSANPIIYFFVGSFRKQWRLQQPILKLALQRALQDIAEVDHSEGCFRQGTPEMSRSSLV
Assay type: cell-based
Description: CHO cells stably transfected to express human MRGPRX2 were maintained in an incubator at 37° C. with 5% CO2 and grown in F12 (HAM) media with 10% fetal bovine serum (FBS), 1% Glutamax, 1% penicillin/streptomycin, 800 μg/mL Geneticin (G418), and 300 μg/mL Hygromycin B. Cells were plated in a 384-well assay plate at 20,000 cells per well in 12 μL of Opti-MEM and kept in an incubator overnight. On the day of the assay, compounds solubilized at 10 mM in DMSO were added as a 10-point curve (30 uM final top concentration with 1:3 serial dilutions) using a Tecan D300E digital dispenser. Agonists were diluted in assay buffer (final concentrations of 5.7 mM Tris-HCl, 43 mM NaCl, 50 mM LiCl, pH=8) and 2 μL of the agonist Cortistatin-14 (CPC Scientific, catalog CORT-002) are added to each well. Final concentrations of agonists were 0.3 μM Cortistatin-14. Final concentrations of DMSO were kept consistent across the plate. Plates were incubated in the dark for 1 hr at 37° C. and then for 1 hr at room temperature. IP-1 standards and HTRF detection reagents were added according to the IP-One-Gq Kit purchased from Cisbio (part number 62IPAPEJ) and incubated in the dark for 1 hr at room temperature. The plate was read on a Molecular Devices SpectraMax iD5 plate reader. The HTRF ratio was calculated from the raw data and graphed using GraphPad Prism to calculate an IC50 value for each compound.
The activity ranges are denoted as follows: “+++++” denotes antagonist activity <50 nM; “++++” denotes antagonist activity between 51 and 100 nM; “+++” denotes activity between 101 and 500 nM; “++” denotes activity between 501 and 1000 nM; and “+” denotes activity >1000 nM
`O=C(N[C@H]1CC[C@@H](Nc2cccc3nc(C(F)(F)F)cn23)CC1)c1ccn2cncc2c1` [2-163] was tested, and the IC50 was < 50 nM.
`O=C(N[C@H]1CC[C@@H](Nc2cccc3nc(C(F)(F)F)cn23)CC1)c1cccc2[nH]ccc12` [2-232] was tested, and the IC50 was < 50 nM.
`O=C(N[C@H]1CC[C@@H](Nc2cccc3nc(C(F)F)cn23)CC1)c1ccc(OCCF)cc1` [2-218] was tested, and the IC50 was < 50 nM.
`O=C(N[C@H]1CC[C@@H](Nc2cccc3nc(C(F)(F)F)cn23)CC1)c1ccn(CC(F)F)n1` [2-135] was tested, and the IC50 was < 50 nM.
For `COc1ccc(C(=O)N[C@H]2CC[C@@H](Nc3cccc4nn(C(F)(F)F)cc34)CC2)cc1` [1-21], the IC50 was 51 to 100 nM.
With `O=C(N[C@H]1CC[C@@H](Nc2cccc3sc(C(F)F)cc23)CC1)c1ccc(F)cc1` [1-13] the IC50 was 51 to 100 nM.
Compound `O=C(N[C@H]1CC[C@@H](Nc2cccc3nc(C(F)(F)F)cn23)CC1)c1ccn2ccnc2c1` [2-208] has an IC50 of 51 to 100 nM.
Compound `N#Cc1cc2c(N[C@H]3CC[C@@H](NC(=O)c4ccc(F)cc4)CC3)cccc2s1` [1-20] has an IC50 of 51 to 100 nM.
`CN(C)c1ccc(C(=O)N[C@H]2CC[C@@H](Nc3cccc4nc(C(F)(F)F)cn34)CC2)c(F)c1` [2-159] showed an IC50 of 51 to 100 nM.
`CNc1ccccc1C(=O)N[C@H]1CC[C@@H](Nc2cccc3nc(C(F)F)cn23)CC1` [2-276] was tested, and the IC50 was 51 to 100 nM.
Work on `COc1ccc(C(=O)N[C@@H]2CCC[C@H](Nc3cc(Cl)cc4nc(C(F)(F)F)cn34)C2)cc1` [1-30] yielded an IC50 of 51 to 100 nM.
`CCOc1cc(C(=O)N[C@H]2CC[C@@H](Nc3cccc4nc(C(F)(F)F)cn34)CC2)ccn1` [2-15] showed an IC50 of 101 to 500 nM.
With `COc1ccc(C(=O)N[C@H]2CC[C@@H](Nc3cccc4sc(C(F)(F)F)nc34)CC2)cc1` [1-17] the IC50 was > 1000 nM.
In the case of `CC(C)(F)Cn1cc(C(=O)N[C@H]2CC[C@@H](Nc3cccc4nc(C(F)F)cn34)CC2)c(Cl)n1` [2-257], the IC50 is reported as < 50 nM.
With `O=C(N[C@H]1CC[C@@H](Nc2cccc3nc(C(F)(F)F)cn23)CC1)c1cn(CC(F)F)nc1Cl` [Example 11, 3-chloro-1-(2,2-difluoroethyl)-N-((1 s,4s)-4-((2-(trifluoromethyl)imidazo[1,2-a]pyridin-5-yl)amino)cyclohexyl)-1H-pyrazole-4-carboxamide] the IC50 was < 50 nM.
For `O=C(N[C@H]1CC[C@@H](Nc2cccc3nc(C(F)(F)F)cn23)CC1)c1cn(C(F)F)nc1Cl` [2-297], the IC50 was < 50 nM.
`O=C(N[C@H]1CC[C@@H](Nc2cccc3nc(C(F)(F)F)cn23)CC1)c1ccc(NCC(F)F)cc1` [2-180] was tested, and the IC50 was < 50 nM.
`O=C(N[C@H]1CC[C@@H](Nc2cccc3nc(C(F)F)cn23)CC1)c1cccc2[nH]c(C(F)F)nc12` [2-151] showed an IC50 of 101 to 500 nM.
With `O=C(N[C@H]1CC[C@@H](Nc2cccc3nc(C(F)(F)F)cn23)CC1)c1ccc(N2CCOCC2)cc1` [2-8] the IC50 was < 50 nM.
`COc1ccc(C(=O)N[C@H]2CC[C@@H](Nc3cccc4nc(C(F)F)cn34)CC2)c(F)c1` [2-27] was tested, and the IC50 was 101 to 500 nM.
In the case of `O=C(N[C@H]1CC[C@@H](Nc2cccc3nc(C(F)(F)F)cn23)CC1)c1ccc(OCCF)cc1` [2-230], the IC50 is reported as < 50 nM.
`O=C(N[C@H]1CC[C@@H](Nc2cccc3nc(C(F)(F)F)cn23)CC1)c1noc2ccccc12` [2-290] gave an IC50 of 101 to 500 nM.
`NS(=O)(=O)c1ccc(C(=O)N[C@H]2CC[C@@H](Nc3cccc4nc(C(F)(F)F)cn34)CC2)cc1` [2-204] was tested, and the IC50 was < 50 nM.
Work on `O=C(N[C@H]1CC[C@@H](Nc2cccc3nc(C(F)F)cn23)CC1)c1ccc(F)cc1Cl` [2-149] yielded an IC50 of 101 to 500 nM.
`Cc1ncc(C(=O)N[C@H]2CC[C@@H](Nc3cccc4nc(C(F)(F)F)cn34)CC2)n1C` [2-134] was tested, and the IC50 was 101 to 500 nM.
With `CCn1cc(C(=O)N[C@H]2CC[C@@H](Nc3cccc4nc(C(F)(F)F)cn34)CC2)c(Cl)n1` [2-293] the IC50 was < 50 nM.
`O=C(N[C@H]1CC[C@@H](Nc2cccc3nc(C(F)(F)F)cn23)CC1)c1c[nH]nc1Cl` [2-176] was tested, and the IC50 was < 50 nM.
For `CNc1ccc(C(=O)N[C@H]2CC[C@@H](Nc3cccc4nc(C(F)F)cn34)CC2)cc1` [2-195], the IC50 was < 50 nM.
In the case of `O=C(N[C@H]1CC[C@@H](Nc2cccc3nc(C(F)F)cn23)CC1)c1c[nH]nc1NCC(F)F` [2-194], the IC50 is reported as < 50 nM.
With `O=C(N[C@H]1CC[C@@H](Nc2cccc3nc(C(F)(F)F)cn23)CC1)c1ccc(-n2cnnn2)cc1` [2-202] the IC50 was < 50 nM.
For `O=C(N[C@H]1CC[C@@H](Nc2cccc3nc(C(F)(F)F)cn23)CC1)c1ccc(C(F)F)cc1` [2-179], the IC50 was < 50 nM.
`Cc1n[nH]c2c(C(=O)N[C@H]3CC[C@@H](Nc4cccc5nc(C(F)(F)F)cn45)CC3)cccc12` [2-183] was tested, and the IC50 was < 50 nM.
In the case of `O=C(N[C@H]1CC[C@@H](Nc2cccc3nc(C(F)F)cn23)CC1)c1cccc2cn[nH]c12` [2-193], the IC50 is reported as < 50 nM.
`COc1ccc(C(=O)N[C@@H]2CCC[C@H](Nc3cc(F)cc4nc(C(F)(F)F)cn34)C2)cc1` [1-31] gave an IC50 of 51 to 100 nM.
Work on `CCc1cc(C(=O)N[C@H]2CC[C@@H](Nc3cccc4nc(C(F)(F)F)cn34)CC2)nn1CC` [2-190] yielded an IC50 of 101 to 500 nM.
`CNc1ccccc1C(=O)N[C@H]1CC[C@@H](Nc2cccc3nc(C#N)cn23)CC1` [2-262] gave an IC50 of 101 to 500 nM.
`O=C(N[C@H]1CC[C@@H](Nc2cccc3nc(C(F)(F)F)cn23)CC1)c1ccnc2[nH]ccc12` [2-168] was tested, and the IC50 was < 50 nM.
For `COc1cccc2cc(C(=O)N[C@H]3CC[C@@H](Nc4cccc5nc(C(F)(F)F)cn45)CC3)oc12` [2-166], the IC50 was 51 to 100 nM.
`CC(C)S(=O)(=O)Nc1ccc(C(=O)N[C@H]2CC[C@@H](Nc3cccc4nc(C(F)(F)F)cn34)CC2)cc1` [2-203] was tested, and the IC50 was < 50 nM.
`O=C(N[C@H]1CC[C@@H](Nc2cccc3nc(C(F)(F)F)cn23)CC1)c1cnc2nccn2c1` [2-125] showed an IC50 of 101 to 500 nM.
With `CN(C)c1ccc(C(=O)N[C@H]2CC[C@@H](Nc3cccc4nc(C#N)cn34)CC2)cc1` [2-258] the IC50 was < 50 nM.
In the case of `O=C(N[C@H]1CC[C@@H](Nc2cccc3nc(C(F)(F)F)cn23)CC1)c1n[nH]c2ccccc12` [2-9], the IC50 is reported as 101 to 500 nM.
`CCCn1cc(C(=O)N[C@H]2CC[C@@H](Nc3cccc4nc(C(F)F)cn34)CC2)cn1` [2-255] showed an IC50 of 101 to 500 nM.
`CCn1ncc(C(=O)N[C@H]2CC[C@@H](Nc3cccc4nc(C(F)(F)F)cn34)CC2)c1Cl` [2-292] gave an IC50 of 101 to 500 nM.
`COc1ccc(C(=O)N[C@H]2CC[C@@H](Nc3cccc4nc(C(F)(F)F)sc34)CC2)cc1` [1-22] was tested, and the IC50 was 51 to 100 nM.
`Cn1ncc(C(=O)N[C@H]2CC[C@@H](Nc3cccc4nc(C(F)F)cn34)CC2)c1NCC(F)F` [2-270] was tested, and the IC50 was 51 to 100 nM.
For `COc1ccc(C(=O)N[C@@H]2CCC[C@H](Nc3cccc4sc(C#N)cc34)C2)cc1` [1-16], the IC50 was 101 to 500 nM.
In the case of `Cc1n[nH]cc1C(=O)N[C@H]1CC[C@@H](Nc2cccc3nc(C(F)(F)F)cn23)CC1` [2-138], the IC50 is reported as < 50 nM.
With `CC(C)n1cc(C(=O)N[C@H]2CC[C@@H](Nc3cccc4nc(C(F)(F)F)cn34)CC2)c(Cl)n1` [2-294] the IC50 was < 50 nM.
`O=C(N[C@H]1CC[C@@H](Nc2cccc3nc(C(F)(F)F)cn23)CC1)c1cnc[nH]1` [2-11] gave an IC50 of 101 to 500 nM.
`Cn1ncc(C(=O)N[C@H]2CC[C@@H](Nc3cccc4nc(C(F)(F)F)cn34)CC2)c1C1CC1` [2-245] was tested, and the IC50 was 101 to 500 nM.
With `COc1ccc(C(=O)N[C@@H]2CCC[C@H](Nc3cccc4sc(OC)cc34)C2)cc1` [1-14] the IC50 was > 1000 nM.
`O=C(N[C@H]1CC[C@@H](Nc2cccc3nc(C(F)(F)F)cn23)CC1)c1cnn(CC(F)F)c1C(F)F` [2-284] gave an IC50 of 101 to 500 nM.
`COc1ccc(C(=O)N[C@H]2CC[C@@H](Nc3cc(C)cc4nc(C(F)(F)F)cn34)CC2)cc1` [1-23] was tested, and the IC50 was 101 to 500 nM.
`O=C(N[C@H]1CC[C@@H](Nc2cccc3nc(C(F)F)cn23)CC1)c1ccc(C(F)F)cc1` [2-285] was tested, and the IC50 was 51 to 100 nM.
`COc1ccc(C(=O)N[C@@H]2CCC[C@H](Nc3cccc4oc(C(F)(F)F)nc34)C2)cc1` [Example 4, 4-methoxy-N-[(1R,3S)-3-[[2-(trifluoromethyl)-1,3-benzoxazol-4-yl]amino]cyclohexyl]benzamide] showed an IC50 of 501 to 1000 nM.
With `COc1ccc(C(=O)N[C@@H]2CCC[C@H](Nc3cccc4sc(C(C)=O)cc34)C2)cc1` [1-4] the IC50 was > 1000 nM.
`Nc1nn(CC(F)F)cc1C(=O)N[C@H]1CC[C@@H](Nc2cccc3nc(C(F)(F)F)cn23)CC1` [Example 6, 3-amino-1-(2,2-difluoroethyl)-N-[4-[[2-(trifluoromethyl)imidazo[1,2-a]pyridin-5 yl]amino]cyclohexyl]pyrazole-4-carboxamide] was tested, and the IC50 was < 50 nM.
`CC(C)Oc1ccc(C(=O)N[C@H]2CC[C@@H](Nc3cccc4nc(C(F)(F)F)cn34)CC2)cc1Cl` [2-207] gave an IC50 of 101 to 500 nM.
For `O=C(N[C@H]1CC[C@@H](Nc2cccc3nc(C(F)(F)F)cn23)CC1)c1c[nH]nc1C(F)(F)F` [2-177], the IC50 was < 50 nM.
